One test deals with Histone deacetylase 1 (Homo sapiens, UniProt Q13547).
Test [1] deals with T1, Protein deacetylase HDAC6 (Homo sapiens, UniProt Q9UBN7).
T1 sequence (Q9UBN7 whole entry): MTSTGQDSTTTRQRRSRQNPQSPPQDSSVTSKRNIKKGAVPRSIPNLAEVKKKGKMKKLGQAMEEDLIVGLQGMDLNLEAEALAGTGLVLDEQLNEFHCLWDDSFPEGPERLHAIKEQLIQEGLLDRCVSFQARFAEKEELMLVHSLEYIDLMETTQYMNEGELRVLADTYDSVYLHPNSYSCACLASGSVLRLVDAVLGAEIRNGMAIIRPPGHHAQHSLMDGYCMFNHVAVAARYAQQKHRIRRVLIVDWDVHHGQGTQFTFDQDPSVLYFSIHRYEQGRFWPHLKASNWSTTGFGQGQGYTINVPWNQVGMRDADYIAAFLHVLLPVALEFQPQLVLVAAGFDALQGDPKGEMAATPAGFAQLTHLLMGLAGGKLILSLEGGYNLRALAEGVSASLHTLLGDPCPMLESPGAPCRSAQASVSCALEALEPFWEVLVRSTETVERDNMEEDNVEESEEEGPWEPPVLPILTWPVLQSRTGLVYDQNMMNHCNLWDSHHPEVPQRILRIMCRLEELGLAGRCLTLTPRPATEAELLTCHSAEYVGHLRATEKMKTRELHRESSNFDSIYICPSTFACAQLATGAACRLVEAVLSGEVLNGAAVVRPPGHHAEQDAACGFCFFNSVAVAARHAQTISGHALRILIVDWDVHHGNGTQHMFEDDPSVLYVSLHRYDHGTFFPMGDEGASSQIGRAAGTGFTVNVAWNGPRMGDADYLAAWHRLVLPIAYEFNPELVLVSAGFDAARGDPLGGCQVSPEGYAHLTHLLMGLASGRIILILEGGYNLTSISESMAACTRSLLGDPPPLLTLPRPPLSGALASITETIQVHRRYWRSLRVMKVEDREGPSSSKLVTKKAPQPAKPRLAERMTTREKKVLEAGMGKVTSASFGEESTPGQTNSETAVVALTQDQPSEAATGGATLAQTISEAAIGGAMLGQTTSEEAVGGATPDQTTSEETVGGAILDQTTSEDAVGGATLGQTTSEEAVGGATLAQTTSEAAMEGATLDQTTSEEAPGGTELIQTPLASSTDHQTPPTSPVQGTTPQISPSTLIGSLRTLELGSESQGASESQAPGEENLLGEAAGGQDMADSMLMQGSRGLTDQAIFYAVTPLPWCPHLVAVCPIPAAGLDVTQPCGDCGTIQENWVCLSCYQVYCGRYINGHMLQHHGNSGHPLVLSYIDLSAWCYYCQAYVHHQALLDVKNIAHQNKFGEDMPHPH
Description: Inhibition of HDAC6 (unknown origin) incubated for 30 mins by fluorescence plate reader assay

Another test addresses Histone deacetylase 2 (Homo sapiens, UniProt Q92769).
A further test addresses Histone deacetylase 3 (Homo sapiens, UniProt O15379). Kind of test: Inhibition of HDAC3 (unknown origin) incubated for 30 mins by fluorescence plate reader assay.
The target in a further test is T2, Histone deacetylase 8 (Homo sapiens, UniProt Q9BY41).
T2 sequence (Q9BY41 whole entry): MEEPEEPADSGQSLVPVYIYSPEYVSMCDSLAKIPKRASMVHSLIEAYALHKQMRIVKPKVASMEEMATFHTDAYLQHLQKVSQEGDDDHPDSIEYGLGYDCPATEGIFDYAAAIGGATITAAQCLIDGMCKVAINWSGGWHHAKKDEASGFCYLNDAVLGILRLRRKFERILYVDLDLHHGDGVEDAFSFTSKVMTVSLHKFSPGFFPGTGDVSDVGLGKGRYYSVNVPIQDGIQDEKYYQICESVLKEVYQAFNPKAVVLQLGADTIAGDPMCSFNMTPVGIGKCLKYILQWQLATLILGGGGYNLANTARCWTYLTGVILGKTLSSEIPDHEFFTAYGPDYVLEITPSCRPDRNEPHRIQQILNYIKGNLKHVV
Kind of test: Inhibition of HDAC8 (unknown origin) incubated for 30 mins by fluorescence plate reader assay.

The target in another test is Histone deacetylase 4 (Homo sapiens, UniProt P56524). Kind of test: Inhibition of HDAC4 (unknown origin) incubated for 30 mins by fluorescence plate reader assay.
Chain of Histone deacetylase 4 (P56524 whole entry): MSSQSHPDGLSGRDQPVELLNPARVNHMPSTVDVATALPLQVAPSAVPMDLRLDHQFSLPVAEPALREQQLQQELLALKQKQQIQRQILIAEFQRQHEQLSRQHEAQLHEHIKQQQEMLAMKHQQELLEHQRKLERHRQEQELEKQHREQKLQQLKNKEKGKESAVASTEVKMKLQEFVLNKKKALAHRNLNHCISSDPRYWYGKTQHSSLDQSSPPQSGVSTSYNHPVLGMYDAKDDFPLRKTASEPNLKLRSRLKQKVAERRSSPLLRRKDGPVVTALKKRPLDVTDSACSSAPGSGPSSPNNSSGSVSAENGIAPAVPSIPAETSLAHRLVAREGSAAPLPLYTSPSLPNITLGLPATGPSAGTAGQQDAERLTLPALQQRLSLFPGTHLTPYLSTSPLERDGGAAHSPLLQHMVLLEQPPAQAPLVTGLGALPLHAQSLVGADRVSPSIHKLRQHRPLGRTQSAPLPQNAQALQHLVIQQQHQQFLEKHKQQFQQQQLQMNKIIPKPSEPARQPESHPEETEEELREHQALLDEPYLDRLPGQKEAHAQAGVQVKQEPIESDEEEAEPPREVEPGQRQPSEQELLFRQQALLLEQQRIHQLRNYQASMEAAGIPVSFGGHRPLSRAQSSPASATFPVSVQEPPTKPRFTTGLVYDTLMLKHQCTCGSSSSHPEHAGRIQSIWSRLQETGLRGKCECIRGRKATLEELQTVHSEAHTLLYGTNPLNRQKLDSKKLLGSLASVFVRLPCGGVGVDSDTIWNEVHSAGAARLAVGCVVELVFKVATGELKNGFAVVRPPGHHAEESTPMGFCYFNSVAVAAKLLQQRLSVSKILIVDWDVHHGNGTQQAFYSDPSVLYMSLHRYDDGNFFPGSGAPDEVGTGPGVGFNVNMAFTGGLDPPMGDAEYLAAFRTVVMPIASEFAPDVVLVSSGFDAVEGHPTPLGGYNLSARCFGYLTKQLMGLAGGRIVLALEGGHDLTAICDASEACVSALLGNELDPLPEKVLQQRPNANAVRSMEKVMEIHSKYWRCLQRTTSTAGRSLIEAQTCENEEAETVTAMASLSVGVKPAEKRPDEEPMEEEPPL
In a further test the target is Histone deacetylase 5 (Homo sapiens, UniProt Q9UQL6). The test is described as follows: Inhibition of HDAC5 (unknown origin) incubated for 30 mins by fluorescence plate reader assay.
Chain of Histone deacetylase 5 (Q9UQL6 whole entry): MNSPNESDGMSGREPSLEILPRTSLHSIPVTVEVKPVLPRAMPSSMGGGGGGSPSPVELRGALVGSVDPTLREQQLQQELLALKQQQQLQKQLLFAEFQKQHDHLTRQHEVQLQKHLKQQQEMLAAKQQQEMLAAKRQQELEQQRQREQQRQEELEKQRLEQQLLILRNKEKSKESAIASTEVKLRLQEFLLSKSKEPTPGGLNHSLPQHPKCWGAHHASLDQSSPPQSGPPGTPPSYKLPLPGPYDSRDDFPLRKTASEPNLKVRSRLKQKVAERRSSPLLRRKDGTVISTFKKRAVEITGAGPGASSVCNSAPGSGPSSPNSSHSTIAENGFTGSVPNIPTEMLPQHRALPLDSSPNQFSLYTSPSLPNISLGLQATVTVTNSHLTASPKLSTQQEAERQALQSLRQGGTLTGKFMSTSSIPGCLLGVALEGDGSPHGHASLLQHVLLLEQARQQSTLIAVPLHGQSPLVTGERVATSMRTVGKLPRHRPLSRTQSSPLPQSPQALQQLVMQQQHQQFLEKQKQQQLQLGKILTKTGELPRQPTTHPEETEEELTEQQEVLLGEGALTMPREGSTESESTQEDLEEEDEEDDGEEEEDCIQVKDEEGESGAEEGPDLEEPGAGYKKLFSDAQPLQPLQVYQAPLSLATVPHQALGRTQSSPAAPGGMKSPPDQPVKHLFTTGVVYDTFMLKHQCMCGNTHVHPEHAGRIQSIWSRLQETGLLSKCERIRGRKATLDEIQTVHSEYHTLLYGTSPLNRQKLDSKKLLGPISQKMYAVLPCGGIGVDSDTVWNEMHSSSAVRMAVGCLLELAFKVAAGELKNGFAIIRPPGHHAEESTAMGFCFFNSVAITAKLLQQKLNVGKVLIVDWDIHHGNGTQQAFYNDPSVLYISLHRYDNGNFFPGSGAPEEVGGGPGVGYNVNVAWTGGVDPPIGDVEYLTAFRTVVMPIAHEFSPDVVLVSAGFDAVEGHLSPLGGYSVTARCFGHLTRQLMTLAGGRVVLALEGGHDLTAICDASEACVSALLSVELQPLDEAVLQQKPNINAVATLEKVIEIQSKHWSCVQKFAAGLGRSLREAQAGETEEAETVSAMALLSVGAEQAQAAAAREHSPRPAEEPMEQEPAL
Another test deals with T3, Histone deacetylase 7 (Homo sapiens, UniProt Q8WUI4).
T3 sequence (Q8WUI4 whole entry): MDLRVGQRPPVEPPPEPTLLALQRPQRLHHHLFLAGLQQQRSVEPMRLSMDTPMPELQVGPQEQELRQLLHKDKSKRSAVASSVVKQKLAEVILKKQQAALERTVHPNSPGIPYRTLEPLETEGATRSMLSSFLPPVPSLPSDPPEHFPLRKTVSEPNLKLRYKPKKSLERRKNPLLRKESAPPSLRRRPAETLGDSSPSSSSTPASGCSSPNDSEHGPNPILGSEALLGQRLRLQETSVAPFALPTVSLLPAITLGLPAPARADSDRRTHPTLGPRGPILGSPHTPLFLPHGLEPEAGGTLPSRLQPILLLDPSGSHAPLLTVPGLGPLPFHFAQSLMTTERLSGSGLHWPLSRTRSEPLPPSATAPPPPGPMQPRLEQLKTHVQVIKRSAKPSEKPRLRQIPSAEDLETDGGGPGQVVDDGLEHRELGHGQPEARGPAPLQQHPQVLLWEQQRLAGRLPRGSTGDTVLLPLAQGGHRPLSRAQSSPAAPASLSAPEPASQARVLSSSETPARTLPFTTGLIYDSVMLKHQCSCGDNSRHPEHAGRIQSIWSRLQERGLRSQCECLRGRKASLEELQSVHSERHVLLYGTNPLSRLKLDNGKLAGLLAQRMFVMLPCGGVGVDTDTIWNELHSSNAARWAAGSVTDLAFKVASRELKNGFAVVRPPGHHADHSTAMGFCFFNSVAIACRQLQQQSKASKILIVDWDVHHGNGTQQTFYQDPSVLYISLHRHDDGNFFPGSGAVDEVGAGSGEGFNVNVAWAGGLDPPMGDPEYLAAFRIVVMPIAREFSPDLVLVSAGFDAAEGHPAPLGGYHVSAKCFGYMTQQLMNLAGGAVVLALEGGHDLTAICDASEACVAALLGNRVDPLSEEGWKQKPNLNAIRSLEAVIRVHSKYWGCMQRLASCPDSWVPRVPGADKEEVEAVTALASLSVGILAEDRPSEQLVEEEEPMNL
The test is described as follows: Inhibition of HDAC7 (unknown origin) incubated for 30 mins by fluorescence plate reader assay.

The next test concerns the target Histone deacetylase 9 (Homo sapiens, UniProt Q9UKV0). Kind of test: Inhibition of HDAC9 (unknown origin) incubated for 30 mins by fluorescence plate reader assay.
For test [2], the target named is T4, Polyamine deacetylase HDAC10 (Homo sapiens, UniProt Q969S8).
T4 sequence (Q969S8 whole entry): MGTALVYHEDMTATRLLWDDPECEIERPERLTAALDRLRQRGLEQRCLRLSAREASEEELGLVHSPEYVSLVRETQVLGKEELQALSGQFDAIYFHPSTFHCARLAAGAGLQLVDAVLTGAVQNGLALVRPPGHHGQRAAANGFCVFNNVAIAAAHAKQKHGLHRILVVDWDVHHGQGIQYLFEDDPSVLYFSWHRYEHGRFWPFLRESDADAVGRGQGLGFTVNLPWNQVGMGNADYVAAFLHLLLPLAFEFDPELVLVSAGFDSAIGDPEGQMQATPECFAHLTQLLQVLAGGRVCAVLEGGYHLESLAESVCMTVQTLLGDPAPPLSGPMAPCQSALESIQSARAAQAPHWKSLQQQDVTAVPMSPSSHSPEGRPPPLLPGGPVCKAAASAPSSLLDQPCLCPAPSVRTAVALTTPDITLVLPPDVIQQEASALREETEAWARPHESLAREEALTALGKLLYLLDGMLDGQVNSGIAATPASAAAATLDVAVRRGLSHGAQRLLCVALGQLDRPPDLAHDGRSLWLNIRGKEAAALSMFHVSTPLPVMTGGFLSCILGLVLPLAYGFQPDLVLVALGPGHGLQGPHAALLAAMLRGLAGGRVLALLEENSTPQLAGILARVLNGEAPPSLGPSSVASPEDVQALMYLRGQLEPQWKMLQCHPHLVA
Kind of test: Inhibition of HDAC10 (unknown origin) incubated for 30 mins by fluorescence plate reader assay.

The target of another test is T5, Histone deacetylase 11 (Homo sapiens, UniProt Q96DB2).
T5 sequence (Q96DB2 whole entry): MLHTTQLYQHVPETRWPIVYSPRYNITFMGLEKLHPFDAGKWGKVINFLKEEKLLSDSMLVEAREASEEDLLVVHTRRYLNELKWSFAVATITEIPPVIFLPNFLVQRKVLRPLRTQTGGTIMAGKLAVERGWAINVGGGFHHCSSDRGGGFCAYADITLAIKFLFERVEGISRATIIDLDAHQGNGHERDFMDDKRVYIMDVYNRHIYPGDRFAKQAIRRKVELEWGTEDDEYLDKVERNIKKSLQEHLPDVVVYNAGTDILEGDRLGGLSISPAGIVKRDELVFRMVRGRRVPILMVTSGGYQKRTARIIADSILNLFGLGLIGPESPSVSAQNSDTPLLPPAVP
Kind of test: Inhibition of HDAC11 (unknown origin) incubated for 30 mins by fluorescence plate reader assay.

Chain of Histone deacetylase 1 (Q13547 whole entry): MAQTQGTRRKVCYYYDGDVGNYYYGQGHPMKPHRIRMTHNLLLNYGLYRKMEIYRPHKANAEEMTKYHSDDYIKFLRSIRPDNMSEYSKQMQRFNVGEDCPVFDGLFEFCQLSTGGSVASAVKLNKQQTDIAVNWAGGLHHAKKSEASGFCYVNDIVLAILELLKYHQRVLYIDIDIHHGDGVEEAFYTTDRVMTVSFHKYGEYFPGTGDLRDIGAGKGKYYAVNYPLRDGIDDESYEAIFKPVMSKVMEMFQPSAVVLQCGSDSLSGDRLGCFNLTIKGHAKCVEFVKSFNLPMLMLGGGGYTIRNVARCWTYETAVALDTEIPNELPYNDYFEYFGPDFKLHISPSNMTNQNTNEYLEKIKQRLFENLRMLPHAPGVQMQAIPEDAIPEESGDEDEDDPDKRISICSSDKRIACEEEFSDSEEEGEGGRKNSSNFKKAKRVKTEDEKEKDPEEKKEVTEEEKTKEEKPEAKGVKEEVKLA
Chain of Histone deacetylase 2 (Q92769 whole entry): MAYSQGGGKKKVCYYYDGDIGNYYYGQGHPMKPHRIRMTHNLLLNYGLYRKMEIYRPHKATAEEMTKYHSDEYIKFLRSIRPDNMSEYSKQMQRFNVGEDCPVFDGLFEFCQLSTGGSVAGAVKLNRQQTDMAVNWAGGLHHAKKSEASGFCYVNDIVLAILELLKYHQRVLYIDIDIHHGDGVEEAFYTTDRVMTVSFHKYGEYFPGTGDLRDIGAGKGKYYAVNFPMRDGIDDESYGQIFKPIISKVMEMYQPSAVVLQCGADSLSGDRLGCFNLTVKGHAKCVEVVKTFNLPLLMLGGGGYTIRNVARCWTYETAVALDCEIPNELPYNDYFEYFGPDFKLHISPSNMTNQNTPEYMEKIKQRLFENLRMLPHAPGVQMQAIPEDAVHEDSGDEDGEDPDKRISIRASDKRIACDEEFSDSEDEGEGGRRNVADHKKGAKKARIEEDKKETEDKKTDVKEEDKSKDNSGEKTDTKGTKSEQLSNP
Chain of Histone deacetylase 3 (O15379 whole entry): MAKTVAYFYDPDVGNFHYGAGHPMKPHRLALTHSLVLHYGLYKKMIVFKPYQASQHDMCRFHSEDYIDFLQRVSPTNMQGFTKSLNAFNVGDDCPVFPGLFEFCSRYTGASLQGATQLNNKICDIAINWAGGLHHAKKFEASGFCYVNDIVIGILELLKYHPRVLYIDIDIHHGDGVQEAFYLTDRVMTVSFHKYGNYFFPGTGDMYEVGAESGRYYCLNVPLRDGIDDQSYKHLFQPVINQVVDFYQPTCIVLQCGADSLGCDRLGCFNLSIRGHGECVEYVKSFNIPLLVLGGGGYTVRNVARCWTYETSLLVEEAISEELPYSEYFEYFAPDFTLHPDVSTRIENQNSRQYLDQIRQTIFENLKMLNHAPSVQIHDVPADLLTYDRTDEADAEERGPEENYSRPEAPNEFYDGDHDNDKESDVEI
Chain of Histone deacetylase 9 (Q9UKV0 whole entry): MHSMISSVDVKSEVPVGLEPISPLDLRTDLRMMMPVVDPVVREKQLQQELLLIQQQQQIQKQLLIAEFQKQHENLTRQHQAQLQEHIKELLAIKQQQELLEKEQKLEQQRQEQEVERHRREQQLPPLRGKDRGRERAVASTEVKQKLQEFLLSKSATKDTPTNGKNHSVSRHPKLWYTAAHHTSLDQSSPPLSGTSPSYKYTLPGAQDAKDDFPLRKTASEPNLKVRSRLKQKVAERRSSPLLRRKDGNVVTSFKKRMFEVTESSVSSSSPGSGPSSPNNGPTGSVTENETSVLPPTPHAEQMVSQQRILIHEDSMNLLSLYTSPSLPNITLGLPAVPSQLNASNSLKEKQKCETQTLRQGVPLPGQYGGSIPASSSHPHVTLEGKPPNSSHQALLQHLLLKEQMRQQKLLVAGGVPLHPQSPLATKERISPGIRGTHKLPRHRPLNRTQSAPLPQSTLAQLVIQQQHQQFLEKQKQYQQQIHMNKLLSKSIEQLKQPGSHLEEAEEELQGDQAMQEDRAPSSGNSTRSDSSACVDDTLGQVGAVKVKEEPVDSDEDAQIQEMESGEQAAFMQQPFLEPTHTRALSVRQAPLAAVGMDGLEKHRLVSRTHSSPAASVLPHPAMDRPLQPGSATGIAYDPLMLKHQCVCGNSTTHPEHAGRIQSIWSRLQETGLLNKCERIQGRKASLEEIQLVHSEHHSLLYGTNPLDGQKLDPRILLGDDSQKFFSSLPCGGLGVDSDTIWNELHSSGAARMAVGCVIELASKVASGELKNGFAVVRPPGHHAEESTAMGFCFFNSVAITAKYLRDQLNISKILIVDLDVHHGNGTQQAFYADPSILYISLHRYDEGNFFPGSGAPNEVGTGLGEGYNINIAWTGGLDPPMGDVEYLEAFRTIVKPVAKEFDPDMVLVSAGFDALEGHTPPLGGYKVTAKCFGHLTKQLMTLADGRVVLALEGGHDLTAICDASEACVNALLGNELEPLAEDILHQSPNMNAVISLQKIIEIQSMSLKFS
Description for Histone deacetylase 2: Inhibition of HDAC2 (unknown origin) incubated for 30 mins by fluorescence plate reader assay

With `O=C(NO)c1ccc(CNC(=O)c2ccccc2)cc1`, the IC50 against Histone deacetylase 1 is 941 nM; in test [1] it was 87 nM.

As to `O=C(NO)c1ccc(CN(Cc2ccccc2)C(=O)c2ccccc2)cc1`, the concentration for half-maximal inhibition (IC50) was > 10000 nM at Histone deacetylase 2; 1930 nM on Histone deacetylase 3; 4480 nM at Histone deacetylase 8; > 10000 nM on Histone deacetylase 4; > 10000 nM at Histone deacetylase 5; 4950 nM against Histone deacetylase 7. Moreover, the half-inhibitory concentration (IC50) against Histone deacetylase 9 is > 10000 nM; in test [2] it was 1410 nM; on Histone deacetylase 11, > 10000 nM; against Histone deacetylase 1, 850 nM.

The values are drawn from ChEMBL document CHEMBL5518175, “Design, synthesis, and biological evaluation of HDAC6 inhibitors targeting L1 loop and serine 531 residue” (Eur J Med Chem, 2024).
